Assay results from ChEMBL document CHEMBL1201862, “PubChem BioAssay data set” (2004).
Calls of active or inactive are those of the source.

What was measured:
[1] = microbe, parasite or virus in culture; format: functional; conditions: Mycobacterium tuberculosis
cells = format: functional
[2] = biological target: FAD-linked sulfhydryl oxidase ALR (Homo sapiens, UniProt P55789); test: inhibitors of human ALR sulfhydryl oxidase, dose response, biochemical, H2O2 detection, luminescence, cherry-pick (AID 493248)
[3] = growth suppression of PTEN-null colon cells, dose response, cell-based, HCT116 PTEN knockout (AID 1047); format: functional;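 also: HCT116 colon tumor cells with PTEN knocked out; cells exposed to compound for 60 hours before readout; potency for loss of cell viability measured by luminescence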
[4] = growth suppression of beta-catenin-knockout colon cells, dose response, cell-based, HCT116, human colon tumor (AID 1045); format: functional;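 also: HCT116 colon tumor cells with beta catenin knocked out; cells exposed to compound for 60 hours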
Caspase-6 = biological target: T1, Caspase-6 (Homo sapiens, UniProt P55212); test: human caspase-6 inhibitors, dose response, biochemical, VEID-R110 fluorescence, cherry-pick (AID 720632)
T1 sequence (P55212 whole entry): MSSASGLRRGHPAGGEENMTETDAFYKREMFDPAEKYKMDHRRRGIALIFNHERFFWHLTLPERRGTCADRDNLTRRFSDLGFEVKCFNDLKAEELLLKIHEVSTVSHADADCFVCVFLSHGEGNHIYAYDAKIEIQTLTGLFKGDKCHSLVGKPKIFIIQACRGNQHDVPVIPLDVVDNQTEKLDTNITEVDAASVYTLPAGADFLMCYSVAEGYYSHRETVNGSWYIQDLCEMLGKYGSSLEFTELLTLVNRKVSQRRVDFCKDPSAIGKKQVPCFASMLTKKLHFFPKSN

[5] = biological target: T2, High affinity choline transporter 1 (Homo sapiens, UniProt Q9GZV3); test: CHT inhibitors, dose response, cell-based, 5-point CRC, membrane potential dye (AID 504840); format: functional
T2 sequence (Q9GZV3 whole entry): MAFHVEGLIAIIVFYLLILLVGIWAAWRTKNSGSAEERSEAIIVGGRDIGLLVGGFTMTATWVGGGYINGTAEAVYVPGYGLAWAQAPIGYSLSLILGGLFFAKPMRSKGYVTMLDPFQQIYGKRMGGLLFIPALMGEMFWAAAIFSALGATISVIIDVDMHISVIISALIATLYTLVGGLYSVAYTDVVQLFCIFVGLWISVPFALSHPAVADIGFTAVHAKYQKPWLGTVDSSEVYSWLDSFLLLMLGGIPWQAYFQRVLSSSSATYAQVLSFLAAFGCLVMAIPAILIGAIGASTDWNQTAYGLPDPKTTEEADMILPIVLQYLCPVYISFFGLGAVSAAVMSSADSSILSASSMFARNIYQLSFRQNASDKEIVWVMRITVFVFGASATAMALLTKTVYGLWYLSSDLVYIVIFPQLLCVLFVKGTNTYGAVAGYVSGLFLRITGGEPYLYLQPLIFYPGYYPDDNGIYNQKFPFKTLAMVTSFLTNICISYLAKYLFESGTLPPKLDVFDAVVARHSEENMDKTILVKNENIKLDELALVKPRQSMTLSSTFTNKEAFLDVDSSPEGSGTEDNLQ

[6] = biological target: T3, Polyadenylate-binding protein 1 (Homo sapiens, UniProt P11940); test: PABP1 MLLE–PAM2 interaction inhibitors, dose response, miRNA deadenylation inhibitor project, biochemical, fluorescence polarization, Cy5-PAM2 peptide, secondary (AID 602260); format: functional; conditions: read-out: IC50_Mean
[7] = biological target: T3, Polyadenylate-binding protein 1; test: PABP1 MLLE–PAM2 binding inhibitor potency, dose response, biochemical, fluorescence polarization, FITC-PAM2 peptide (AID 602259); format: functional; conditions: read-out: IC50_Mean
[8] = inhibitors of intracellular T. cruzi replication, confirmation, NIH3T3 host cells, beta-gal luminescence (AID 2044); format: functional, cell-based;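 also: intracellular parasites grown in NIH/3T3 mouse fibroblasts as host cells; luminescent beta-galactosidase reporter signal from transgenic T. cruzi replicating inside host cells; inhibitors lower the luminescence signal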
[9] = cytotoxicity toward NIH3T3 fibroblasts, dose response, counter-screen, cell-based, ATP luminescence, mouse fibroblasts (AID 2010); format: functional;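 also: cells exposed to compound for about 90 hours before reading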
[10] = biological target: Glucose-6-phosphate 1-dehydrogenase (Homo sapiens, UniProt P11413); test: human G6PD enzyme inhibitors, dose response, selectivity assay for P. falciparum G6PD inhibitor project, biochemical, fluorescence (AID 504792); format: functional
Leucine aminopeptidase = biological target: T4, Leucine aminopeptidase (Plasmodium falciparum 3D7, UniProt Q8IL11); test: P. falciparum M17LAP inhibitors, primary screen, biochemical, fluorogenic H-Leu-NHMec substrate, 1536-well (AID 1619); format: functional
T4 sequence (Q8IL11 whole entry): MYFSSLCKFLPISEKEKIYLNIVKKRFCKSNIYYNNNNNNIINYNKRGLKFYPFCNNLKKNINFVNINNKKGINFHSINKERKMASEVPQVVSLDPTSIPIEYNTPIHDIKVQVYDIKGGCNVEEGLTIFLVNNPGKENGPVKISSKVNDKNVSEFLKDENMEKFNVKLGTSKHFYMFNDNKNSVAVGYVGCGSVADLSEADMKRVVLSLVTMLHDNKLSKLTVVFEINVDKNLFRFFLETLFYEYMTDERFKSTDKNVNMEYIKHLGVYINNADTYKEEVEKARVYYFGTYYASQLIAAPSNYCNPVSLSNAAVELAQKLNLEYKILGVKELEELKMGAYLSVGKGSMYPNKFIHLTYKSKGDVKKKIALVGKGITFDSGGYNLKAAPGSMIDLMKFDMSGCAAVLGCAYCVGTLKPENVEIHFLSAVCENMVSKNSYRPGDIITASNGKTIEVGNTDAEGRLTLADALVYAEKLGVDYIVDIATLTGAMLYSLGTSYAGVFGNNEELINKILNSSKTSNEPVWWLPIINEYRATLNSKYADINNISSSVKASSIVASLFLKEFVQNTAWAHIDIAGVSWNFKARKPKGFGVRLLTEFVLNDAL

[11] = biological target: T5, Calpain-2 catalytic subunit (Sus scrofa, UniProt P43367); test: pig calpain II inhibitor potency, dose response, biochemical, fluorogenic peptide substrate (AID 1420); format: functional
T5 sequence (P43367 whole entry): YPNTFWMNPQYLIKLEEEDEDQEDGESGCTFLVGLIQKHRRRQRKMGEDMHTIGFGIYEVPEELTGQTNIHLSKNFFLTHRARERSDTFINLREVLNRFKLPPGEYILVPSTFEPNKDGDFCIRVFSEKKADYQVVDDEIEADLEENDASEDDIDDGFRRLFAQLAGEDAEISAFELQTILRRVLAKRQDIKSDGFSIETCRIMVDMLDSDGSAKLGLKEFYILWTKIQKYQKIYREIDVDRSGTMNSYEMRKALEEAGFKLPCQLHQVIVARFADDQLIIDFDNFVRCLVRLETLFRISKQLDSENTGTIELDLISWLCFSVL

[12] = inhibitors of firefly luciferase expression or activity, dose response, H4 neuroglioma cells, luminescence (AID 1990); format: functional, cell-based
[13] = inhibitors of SNCA 5'UTR-driven reporter translation, confirmation, H4 neuroglioma cells, luminescence (AID 1988); format: functional, cell-based
Vero = test: cells; format: functional; conditions: Chlorocebus sabaeus

Sequence of FAD-linked sulfhydryl oxidase ALR (P55789 whole entry): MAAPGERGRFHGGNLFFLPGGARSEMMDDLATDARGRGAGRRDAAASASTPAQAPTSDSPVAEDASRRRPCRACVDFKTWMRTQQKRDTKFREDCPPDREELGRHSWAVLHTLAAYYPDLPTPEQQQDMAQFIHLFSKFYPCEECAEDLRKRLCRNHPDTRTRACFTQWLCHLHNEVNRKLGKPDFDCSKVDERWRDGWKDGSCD
T3 sequence (P11940 whole entry): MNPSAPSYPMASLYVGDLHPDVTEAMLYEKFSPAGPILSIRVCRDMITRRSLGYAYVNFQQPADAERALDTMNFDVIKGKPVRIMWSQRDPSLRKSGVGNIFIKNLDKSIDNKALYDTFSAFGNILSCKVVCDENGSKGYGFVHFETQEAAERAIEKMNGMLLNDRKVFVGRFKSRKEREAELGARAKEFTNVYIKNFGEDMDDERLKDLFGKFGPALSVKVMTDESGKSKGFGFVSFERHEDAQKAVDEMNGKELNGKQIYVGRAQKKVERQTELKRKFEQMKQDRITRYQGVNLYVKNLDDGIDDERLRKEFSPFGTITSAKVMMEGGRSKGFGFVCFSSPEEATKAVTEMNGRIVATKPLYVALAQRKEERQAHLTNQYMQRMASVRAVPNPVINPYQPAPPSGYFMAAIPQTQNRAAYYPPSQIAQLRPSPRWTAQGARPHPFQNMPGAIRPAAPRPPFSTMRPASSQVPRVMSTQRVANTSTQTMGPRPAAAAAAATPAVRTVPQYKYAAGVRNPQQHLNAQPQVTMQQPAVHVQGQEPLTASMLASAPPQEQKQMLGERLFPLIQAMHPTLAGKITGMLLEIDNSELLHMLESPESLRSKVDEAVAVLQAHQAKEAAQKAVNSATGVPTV
Sequence of Glucose-6-phosphate 1-dehydrogenase (P11413 whole entry): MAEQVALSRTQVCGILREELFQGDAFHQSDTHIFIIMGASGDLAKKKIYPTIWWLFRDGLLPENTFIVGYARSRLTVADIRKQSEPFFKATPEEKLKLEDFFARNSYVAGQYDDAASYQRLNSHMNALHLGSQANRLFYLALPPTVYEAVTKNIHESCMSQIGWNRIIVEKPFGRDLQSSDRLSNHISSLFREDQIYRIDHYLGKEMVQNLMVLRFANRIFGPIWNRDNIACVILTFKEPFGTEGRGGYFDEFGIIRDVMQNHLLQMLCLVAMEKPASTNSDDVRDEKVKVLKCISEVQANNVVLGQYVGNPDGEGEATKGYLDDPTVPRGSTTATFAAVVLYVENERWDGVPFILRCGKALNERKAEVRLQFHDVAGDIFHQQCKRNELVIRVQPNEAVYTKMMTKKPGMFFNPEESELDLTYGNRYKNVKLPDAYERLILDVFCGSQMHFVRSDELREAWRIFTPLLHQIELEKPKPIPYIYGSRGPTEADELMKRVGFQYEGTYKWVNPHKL

Cc1ccc(-c2cc(C(F)(F)F)n3nc(C(=O)NCCCn4ccnc4)cc3n2)cc1C
CC50 [1]: > 40 µM (active) | IC50 (cells): > 50 µM (active)

Cc1ccc(CSC2=NCCN2C(=O)c2ccco2)cc1
AC50 [2]: 2.85 µM (active)

O=C(NN/C=C1\C(=O)N(Cc2ccccc2)C(=O)c2ccccc21)c1cccnc1
AC50 [2]: 3.35 µM (active)

Cc1nc(-c2ccc(NC(=O)CC(C)C)cc2)cs1
AC50 [2]: 2.38 µM (active)

Cc1ccc(CSc2nc3ccncc3n2CC(=O)Nc2cc(C)cc(C)c2)cc1
EC50 [3]: 26.3 µM (active) | EC50 [4]: 30.7 µM (active)

O=C(Nc1cccc(Cl)c1)c1cccc(N2C(=O)C3CC=CCC3C2=O)c1 (stereo not given)
AC50 (Caspase-6): 9.42 µM (active)

Cc1ccnc(NS(=O)(=O)c2ccc(NC(=O)c3ccc(Cl)cc3[N+](=O)[O-])cc2)n1
IC50 [5]: 13.2 µM (active)

O=C(NC(=S)NC(CO)Cc1ccccc1)c1ccc(F)cc1 (stereo not given)
IC50 [6]: > 66 µM (inactive) | IC50 [7]: > 66 µM (inactive)

O=S(=O)(c1ccc2[nH]c(-c3ccccc3)nc2c1)N1CCN(c2ccc(Cl)cc2)CC1
EC50 [3]: 4.83 µM (active) | EC50 [4]: 5.15 µM (active)

O=C(NC(N=C(S)Nc1c(Cl)cccc1Cl)C(Cl)(Cl)Cl)c1cccc([N+](=O)[O-])c1 (stereo not given)
EC50 [8]: 2.22 µM (active) | EC50 [3]: 12.4 µM (active) | EC50 [9]: > 60 µM (not active) | EC50 [4]: 16.2 µM (active)

O=C(CN1C(=O)C2C3C=CC(C3)C2C1=O)OCC(=O)c1ccc([N+](=O)[O-])cc1 (stereo not given)
IC50 [10]: > 80 µM (inactive)

CC(OC(=O)c1oc2ccccc2c1CSC1CCCCC1)C(=O)NC(N)=O (stereo not given)
EC50 [3]: 24.9 µM (active) | EC50 [4]: 55.1 µM (active)

Nc1n[nH]c(N)c1N=Nc1ccc(F)cc1
IC50 (Leucine aminopeptidase): 8.11 µM (active) | IC50 [11]: 30.8 µM (not active) | AC50 [2]: 2.29 µM (active)

O=C1NC(c2ccccc2)=C(c2ccc3ccccc3n2)C(c2ccncc2)N1 (stereo not given)
IC50 [5]: 4.57 µM (active)

Fc1ccc(CN2CC[C@H]3C=CCc4cccc(c43)C2)cc1
IC50 [6]: > 66 µM (inactive) | IC50 [7]: > 66 µM (inactive)

NC(=O)c1oc2ccccc2c1NC(=O)c1ccc([N+](=O)[O-])o1
EC50 [12]: 8.49 µM (active) | EC50 [13]: 4.08 µM (active) | CC50 (Vero): 5.74 µM (active)

O=C1/C(=C/c2cccc(Cl)c2)SC(=S)N1CCC(=O)N1CCCCC1CCO (stereo not given)
CC50 (Vero): 19.9 µM (active)
